Data from patent publication US11827616B2, “Heterocyclic compounds as pesticides” (Discovery Purchaser Corporation, priority 2018, dated 2023).
Like-named read-outs stand apart in the source and are kept apart here.

Columns and labels:
Assay type in all cases: in vivo
Ctenocephalides felis [1] = assay: Ctenocephalides felis in vitro contact test with adult cat fleas; conditions: application rate 5 μg/cm^2 (=500 g/ha); after 48 h
Procedure: Ctenocephalides felis—In Vitro Contact Tests with Adult Cat Fleas
(§1) For the coating of the test tubes, 9 mg of active compound are first dissolved in 1 ml of acetone p.a. and then diluted to the desired concentration with acetone p.a. 250 μl of the solution are distributed homogeneously on the inner walls and the base of a 25 ml glass tube by turning and rocking on an orbital shaker (rocking rotation at 30 rpm for 2 h). With 900 ppm of active compound solution and internal surface area 44.7 cm^2, given homogeneous distribution, an area-based dose of 5 μg/cm^2 is achieved.
After the solvent has evaporated off, the tubes are populated with 5-10 adult cat fleas (Ctenocephalides felis), sealed with a perforated plastic lid and incubated in a horizontal position at room temperature and ambient humidity. After 48 h, efficacy is determined. To this end, the tubes are stood upright and the fleas are knocked to the base of the tube. Fleas which remain motionless at the base or move in an uncoordinated manner are considered to be dead or moribund.
100% efficacy means that all the fleas were dead or moribund. 0% efficacy means that no fleas were harmed.

Spodoptera frugiperda = Spodoptera frugiperda spray test; conditions: for pest or weed control at 500 g/ha: Spodoptera frugiperda, 168 h, read-out: efficacy
Procedure: Spodoptera frugiperda—Spray Test
(§2) Solvent: 78.0 parts by weight of acetone • • 1.5 parts by weight of dimethylformamide
(§3) Emulsifier: alkylaryl polyglycol ether
(§4) To produce a suitable active compound formulation, 1 part by weight of active compound is dissolved with the specified parts by weight of solvent and made up to the desired concentration with water containing an emulsifier concentration of 1000 ppm. To produce further test concentrations, the formulation is diluted with emulsifier-containing water.
Leaf discs of maize (Zea mays) are sprayed with an active compound formulation of the desired concentration and, after drying, populated with caterpillars of the fall armyworm (Spodoptera frugiperda).
After 7 days, the efficacy in % is determined. 100% means that all the caterpillars have been killed; 0% means that no caterpillar has been killed.

Rhipicephalus sanguineus = Rhipicephalus sanguineus in vitro contact test with adult brown dog ticks; conditions: application rate 5 μg/cm^2 (=500 g/ha); after 48 h
Procedure: Rhipicephalus sanguineus—In Vitro Contact Tests with Adult Brown Dog Ticks
as §1
After the solvent has evaporated off, the tubes are populated with 5-10 adult dog ticks (Rhipicephalus sanguineus), sealed with a perforated plastic lid and incubated in a horizontal position in the dark at room temperature and ambient humidity. After 48 h, efficacy is determined. To this end, the ticks are knocked to the base of the tube and incubated on a hotplate at 45-50° C. for not more than 5 min. Ticks which remain motionless on the base or move in such an uncoordinated manner that they are unable to deliberately avoid the heat by climbing upwards are considered to be dead or moribund.
An efficacy of 100% means that all the ticks were dead or moribund. 0% efficacy means that none of the ticks were harmed.

[2] = system: cattle ticks (Boophilus microplus) Parkhurst strain, SP-resistant; assay: Boophilus microplus dip test; conditions: application rate 100 ppm, after 7 days
Procedure: Boophilus microplus—Dip Test
Test animals: cattle ticks (Boophilus microplus) Parkhurst strain, SP-resistant
(§5) Solvent: dimethyl sulfoxide
10 mg of active compound are dissolved in 0.5 ml of dimethyl sulfoxide. To produce a suitable formulation, the active compound solution is diluted with water to the concentration desired in each case.
This active compound formulation is pipetted into tubes. 8-10 engorged adult female cattle ticks (Boophilus microplus) are transferred into a further tube with holes. The tube is immersed into the active compound formulation, and all the ticks are completely wetted. After the liquid has run out, the ticks are transferred on filter disks into plastic dishes and stored in a climate-controlled room.
(§6) Efficacy is assessed after 7 days by laying of fertile eggs. Eggs which are not visibly fertile are stored in a climate-controlled cabinet until the larvae hatch after about 42 days. An efficacy of 100% means that none of the ticks has laid any fertile eggs; 0% means that all the eggs are fertile.

Boophilus microplus = Boophilus microplus injection test; conditions: for pest or weed control at 0.02 mg: Rhipicephalus microplus, 168 h
Procedure: Boophilus microplus—Injection Test
as §5
To produce a suitable active compound formulation, 10 mg of active compound are mixed with 0.5 ml of solvent and the concentrate is diluted to the desired concentration with solvent.
1 μl of the active compound solution is injected into the abdomen of 5 engorged adult female cattle ticks (Boophilus microplus). The animals are transferred into dishes and kept in a climate-controlled room.
as §6

[3] = system: Anopheles gambiae strain RSPH (homozygot kdr); assay: Anopheles test (ANPHGB surface treatment); conditions: read-out: efficacy (mortality in %)
Procedure: Anopheles Test (ANPHGB Surface Treatment)
(§7) Solvent: acetone+2000 ppm rapeseed oil methyl ester (RME)
(§8) To produce an appropriate active compound formulation, the active compound is dissolved in the solvent (2 mg/ml). The active compound formulation is pipetted onto a glazed tile and, after it has dried off, adult mosquitoes of the species Anopheles gambiae strain RSPH (homozygot kdr) are placed onto the treated tile. The exposure time is 30 minutes.
(§9) 24 hours after contact with the treated surface, mortality in % is determined. 100% means that all mosquitoes have been killed; 0% means that none of the mosquitoes have been killed.

Lucilia cuprina = Lucilia cuprina test; conditions: application rate 100 ppm; L1 larvae; after 2 days
Procedure: as §5
To produce a suitable active compound formulation, 10 mg of active compound are mixed with 0.5 ml of dimethyl sulfoxide, and the concentrate is diluted with water to the desired concentration.
About 20 L1 larvae of the Australian sheep blowfly (Lucilia cuprina) are transferred into a test vessel containing minced horsemeat and the active compound formulation of the desired concentration.
After 2 days, the kill in % is determined. 100% means that all the larvae have been killed; 0% means that no larvae have been killed.

[4] = system: Aedes aegypti strain MONHEIM; assay: Aedes test (AEDSAE surface treatment); conditions: read-out: efficacy (mortality in %)
Procedure: Aedes Test (AEDSAE Surface Treatment)
as §7
as §8, with “Aedes aegypti” for “Anopheles gambiae”, “MONHEIM” for “RSPH (homozygot kdr)”, “minutes. 24 hours after contact with the treated surface, mortality in % is determined. 100% means that all mosquitoes have been killed; 0% means that none of the mosquitoes have been killed.” for “minutes.”

[5] = system: Anopheles funestus strain FUMOZ-R; assay: Anopheles test (ANPHFU surface treatment); conditions: read-out: efficacy (mortality in %)
Procedure: Anopheles Test (ANPHFU Surface Treatment)
as §7
as §8, with “funestus” for “gambiae”, “FUMOZ-R (Hunt et al., Med Vet Entomol. 2005 Sep.; 19 (3):271-5)” for “RSPH (homozygot kdr)”
as §9

Phaedon cochleariae = Phaedon cochleariae spray test; conditions: for pest or weed control at 500 g/ha: Phaedon cochleariae, 168 h, read-out: efficacy
Procedure: Phaedon cochleariae—Spray Test
as §2, §3, §4
Discs of Chinese cabbage leaves (Brassica pekinensis) are sprayed with an active compound formulation of the desired concentration and, after drying, populated with larvae of the mustard beetle (Phaedon cochleariae).
After 7 days, the efficacy in % is determined. 100% means that all the beetle larvae have been killed; 0% means that no beetle larvae have been killed.

Ctenocephalides felis [6] = assay: Ctenocephalides felis oral test; conditions: application rate 100 ppm in citrated cattle blood; after 2 days
Procedure: Ctenocephalides felis—Oral Test
as §5
To produce a suitable active compound formulation, 10 mg of active compound are mixed with 0.5 ml of dimethyl sulfoxide. Dilution with citrated cattle blood gives the desired concentration.
About 20 unfed adult cat fleas (Ctenocephalides felis) are placed into a chamber which is closed at the top and bottom with gauze. A metal cylinder whose bottom end is closed with parafilm is placed onto the chamber. The cylinder contains the blood/active compound formulation, which can be imbibed by the fleas through the parafilm membrane.
After 2 days, the kill in % is determined. 100% means that all of the fleas have been killed; 0% means that none of the fleas have been killed.

Tetranychus urticae = Tetranychus urticae spray test, OP-resistant; conditions: application rate 500 g/ha; after 6 days
Procedure: Tetranychus urticae—Spray Test, OP-Resistant
Solvent: 78.0 Parts by Weight of Acetone • • 1.5 parts by weight of dimethylformamide
as §3, §4
Discs of bean leaves (Phaseolus vulgaris) infested with all stages of the greenhouse red spider mite (Tetranychus urticae) are sprayed with an active compound formulation of the desired concentration.
After 6 days, the efficacy in % is determined. 100% means that all the spider mites have been killed; 0% means that no spider mites have been killed.

[7] = application rate 500 g/ha, after 7 days
[8] = application rate 20 μg/animal, after 7 days
[9] = application rate 20 mg/m^2, exposure 30 minutes, 24 hours after contact
[10] = read-out: efficacy (laying of fertile eggs), application rate 20 μg/animal, after 7 days

SMILES | efficacy (fleas dead or moribund) (Ctenocephalides felis [1]) [%] | efficacy (Spodoptera frugiperda; [7]) [%] | efficacy (ticks dead or moribund) (Rhipicephalus sanguineus) [%] | efficacy (laying of fertile eggs) [2] [%] | efficacy (laying of fertile eggs) (Boophilus microplus; [8]) [%] | efficacy (kill in %) (Lucilia cuprina) [%] | mortality at 100 mg/m2 [3] [%] | mortality at 20 mg/m2 [4] [%] | mortality at 100 mg/m2 [4] [%] | pest or weed control at 500 g/ha (Spodoptera frugiperda) [%] | mortality at 100 mg/m2 [5] [%] | pest or weed control at 0.02 mg (Boophilus microplus; [10]) [%] | mortality at 20 mg/m2 [3] [%] | mortality at 20 mg/m2 [5] [%] | pest or weed control at 500 g/ha (Phaedon cochleariae) [%] | efficacy (Tetranychus urticae) [%] | also measured
COc1cc(OCc2ncc(OCCN(C)OC)cc2F)ccc1Br [Example 86] | 100 | 83 | 100 | 100 | 100 | – | – | – | – | – | – | – | – | – | – | – | –
CON(C)CCOc1cnc(COc2ccc(F)c(-c3ccccc3)c2)c(F)c1 [Example 71, 2-[(5-fluoro-6-{[(6-fluorobiphenyl-3-yl)oxy]methyl}pyridin-3-yl)oxy]-N-methoxy-N-methylethanamine] | 100 | – | 100 | – | – | 100 | – | – | – | – | – | – | – | – | – | – | mortality at 20 mg/m2 [3, 9]: 80 to 100%; mortality at 20 mg/m2 [4, 9]: 80 to 100%; pest or weed control at 500 g/ha (Spodoptera frugiperda; [7]): 100%; mortality at 20 mg/m2 [5, 9]: 80 to 100%; pest or weed control at 0.02 mg (Boophilus microplus; application rate 20 μg/animal, after 7 days, read-out: efficacy (laying of fertile eggs)): 100%; pest or weed control at 500 g/ha (Phaedon cochleariae; [7]): 83%
COc1cc(OCCN(C)OC)cnc1COc1ccc2oc3ccccc3c2c1 [Example 90, 2-({6-[(dibenzo[b,d]furan-2-yloxy)methyl]-5-methoxypyridin-3-yl}oxy)-N-methoxy-N-methylethanamine] | – | – | – | – | – | 80 | 80 to 100 | 80 to 100 | 80 to 100 | 83 | 80 to 100 | 100 | – | – | – | – | –
N#CCN1CCC(Oc2ccc(COc3ccc(Cl)c4ccccc34)cn2)C1 (stereo not drawn) [Example 5, {3-[(5-{[(4-chloro-1-naphthyl)oxy]methyl}pyridin-2-yl)oxy]pyrrolidin-1-yl}acetonitrile] | – | – | – | – | – | 100 | 80 to 100 | – | – | 83 | – | 100 | 80 to 100 | 80 to 100 | 100 | – | –
CON(C)CCOc1ccc(COc2ccc(Cl)c3ccccc23)cn1 [Example 2, 2-[(5-{[(4-chloro-1-naphthyl)oxy]methyl}pyridin-2-yl)oxy]-N-methoxy-N-methylethanamine] | 100 | – | 100 | – | – | 100 | 80 to 100 | 80 to 100 | 80 to 100 | 100 | 80 to 100 | 100 | 80 to 100 | 80 to 100 | 100 | 90 | efficacy (kill in %) (Ctenocephalides felis [6]): 80%
CON(C)CCOc1cnc(COc2ccc3oc4ccccc4c3c2)c(C)c1 [Example 30, 2-({6-[(dibenzo[b,d]furan-2-yloxy)methyl]-5-methylpyridin-3-yl}oxy)-N-methoxy-N-methylethanamine] | – | – | – | – | – | – | – | 80 to 100 | – | – | – | 100 | 80 to 100 | 80 to 100 | 83 | 100 | –
CCOc1nc(COc2cccc3c(Cl)c(Cl)ccc23)ccc1OCCN(C)OC [Example 97, 2-[(6-{[(5,6-dichloro-1-naphthyl)oxy]methyl}-2-ethoxypyridin-3-yl)oxy]-N-methoxy-N-methylethanamine] | – | – | – | – | – | – | – | – | – | – | – | – | – | – | – | – | mortality at 20 mg/m2 [4, 9]: 80 to 100%
COc1cc(OCc2ncc(OCCN(C)OC)cc2F)ccc1Cl [Example 58] | – | 100 | – | 95 | 100 | – | – | – | – | – | – | – | – | – | – | 100 | efficacy (Phaedon cochleariae; [7]): 100%
CON(C)CCOc1ccc(COc2ccc(Cl)c3ccccc23)c(F)n1 [Example 3, 2-[(5-{[(4-chloro-1-naphthyl)oxy]methyl}-6-fluoropyridin-2-yl)oxy]-N-methoxy-N-methylethanamine] | – | – | – | – | – | – | 80 to 100 | – | 80 to 100 | – | 80 to 100 | – | 80 to 100 | 80 to 100 | – | – | –
CON(C)CCOc1ccc(COc2cccc3c(Cl)c(Cl)ccc23)nc1 [Example 16] | 100 | 83 | 100 | 95 | 100 | 100 | – | – | – | – | – | – | – | – | – | – | efficacy (Phaedon cochleariae; [7]): 83%
